Paper PMC9705739, “Canagliflozin, characterized as a HDAC6 inhibitor, inhibits gastric cancer metastasis” (Frontiers in Oncology, 2022)

Molecular target: T1, HDAC6 (Homo sapiens, UniProt Q9UBN7)
T1 sequence (Q9UBN7 1-1215): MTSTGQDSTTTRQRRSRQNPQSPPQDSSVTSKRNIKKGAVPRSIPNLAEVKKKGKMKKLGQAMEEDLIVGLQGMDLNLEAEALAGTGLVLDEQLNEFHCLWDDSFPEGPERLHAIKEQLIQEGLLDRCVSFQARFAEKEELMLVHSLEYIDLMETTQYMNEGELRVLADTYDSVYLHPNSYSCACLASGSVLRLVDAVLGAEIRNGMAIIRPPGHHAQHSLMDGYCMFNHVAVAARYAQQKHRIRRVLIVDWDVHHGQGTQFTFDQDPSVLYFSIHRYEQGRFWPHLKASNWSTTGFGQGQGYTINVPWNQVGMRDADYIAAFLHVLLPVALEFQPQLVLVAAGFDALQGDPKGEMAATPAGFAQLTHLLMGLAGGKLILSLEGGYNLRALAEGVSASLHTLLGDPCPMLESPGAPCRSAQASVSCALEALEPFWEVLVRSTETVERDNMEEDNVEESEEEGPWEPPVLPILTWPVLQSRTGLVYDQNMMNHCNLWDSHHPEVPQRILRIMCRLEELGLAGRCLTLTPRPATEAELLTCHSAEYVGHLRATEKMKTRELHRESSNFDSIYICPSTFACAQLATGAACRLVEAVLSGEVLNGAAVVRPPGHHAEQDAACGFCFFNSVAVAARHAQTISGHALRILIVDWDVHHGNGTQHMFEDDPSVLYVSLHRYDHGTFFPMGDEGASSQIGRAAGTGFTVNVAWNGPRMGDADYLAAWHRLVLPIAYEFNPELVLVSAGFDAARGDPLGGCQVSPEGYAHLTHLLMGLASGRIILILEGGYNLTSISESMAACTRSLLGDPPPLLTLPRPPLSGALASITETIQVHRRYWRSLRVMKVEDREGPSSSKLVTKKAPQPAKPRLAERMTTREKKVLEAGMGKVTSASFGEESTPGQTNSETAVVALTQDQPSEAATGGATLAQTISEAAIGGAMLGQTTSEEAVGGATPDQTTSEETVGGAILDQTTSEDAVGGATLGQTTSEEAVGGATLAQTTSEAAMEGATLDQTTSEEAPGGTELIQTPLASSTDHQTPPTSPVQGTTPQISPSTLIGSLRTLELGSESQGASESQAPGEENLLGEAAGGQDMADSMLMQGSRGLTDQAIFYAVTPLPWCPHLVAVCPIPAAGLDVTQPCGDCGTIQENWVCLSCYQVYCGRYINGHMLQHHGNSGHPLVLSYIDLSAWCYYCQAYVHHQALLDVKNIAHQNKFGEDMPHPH
Test: SPR (Biacore T200, immobilized HDAC6); also enzymatic inhibition IC50 […] and CETSA in MGC-803 cells
Assay type: binding

- Kd: 859 nM
SMILES: Cc1ccc([C@@H]2O[C@H](CO)[C@@H](O)[C@H](O)[C@H]2O)cc1Cc1ccc(-c2ccc(F)cc2)s1 [canagliflozin]
